Like-named read-outs stand apart in the source and are kept apart here.
Key:
rat = conditions: oral; cited from earlier work
[1] = tested on: oxidative damage in certain model systems; conditions: certain model systems (Oxenkrug 2005); cited from earlier work
[2] = cited from earlier work; for solubility of melatonin in DMSO: room temperature (20 or 25° C.)
[3] = Procedure: The determination of what constitutes initial amount and final amount shall be made using the same experimental techniques. In the experiments presented below, initial and final amounts of degradation products were determined using HPLC as an exemplary measurement technique.
High pressure liquid chromatography (HPLC) elution profiles obtained from a 100×4.6 mm Phenomenex Kinetex column of XB-C18 silica (5 μm particle size) eluted with a linear gradient of solvent B (acetonitrile containing 0.1% v/v acetic acid) 10% to 50% in solvent A (water containing 0.1% v/v acetic acid) from 0.8 to 7.8 min, returning to 10% B at 8.8 min. Peaks were detected by UV absorption at […] wavelength. Overloading sample sizes were used to facilitate the detection of small amounts of breakdown products. […] (FIG. 1A) or 25° C. (FIG. 1B).
HPLC elution profiles were obtained as described for FIG. 1. […] (FIG. 2A) or 25° C. (FIG. 2B).
HPLC elution profiles were obtained as described for FIG. 1. […] (FIG. 3A) or 25° C. (FIG. 3B).

[4] = Solubility of melatonin in aqueous solubilizer mixtures (overnight end-over-end rotation, filtration, HPLC); format: physicochemical; conditions: 20% (w/w) aqueous glycofurol, 25 °C, aqueous with cosolvent or surfactant or cyclodextrin, thermodynamic from solid
Procedure: Peaks were detected by UV absorption at 277 μm wavelength. […] To study the effect of adding DMSO to this medium, a medium consisting of 20% (w/w) glycofurol and 40% (w/w) DMSO in water was also prepared.

[5] = melatonin 10 mg/mL in 20% (w/w) aqueous glycofurol, 45 days at 25° C.
[6] = melatonin 10 mg/mL in 20% (w/w) glycofurol, 40% (w/w) DMSO in water, 45 days at 25° C.

**Q.** Which LD50 (rat) does the source give for `CCO` [ethanol] here?
**A.** 7060 mg/kg

**Q.** With `CC(=O)NCCc1c[nH]c2ccc(O)cc12` [N-acetylserotonin] as the molecule, how does the “protective effect against oxidative damage, times as strong as that of melatonin” value [1] read?
**A.** 5 to 20 times

**Q.** Which “solubility of melatonin in ethanol” value ([2]; 20° C., EC SCCS/1315/10, 2010) does the source give for `COc1ccc2[nH]cc(CCNC(C)=O)c2c1` [melatonin, N-acetyl-5-methoxytryptamine] here?
**A.** 182 mg/mL

**Q.** And the “solubility of melatonin in ethanol/water (40/60 v/v) mixture” value ([2]; 20° C.)?
**A.** 64 mg/mL

**Q.** And the “solubility of melatonin in water” value ([2]; 20° C.)?
**A.** approximately 2 g/L

**Q.** And the “solubility of melatonin in water” value ([2]; 50° C.)?
**A.** ~5 mg/mL

**Q.** What about the “solubility of melatonin in DMSO” value ([2]; source MedChem) of the same molecule?
**A.** ≤ 200 mM

**Q.** What about the “solubility of melatonin in DMSO” value ([2]; source abcam) of the same molecule?
**A.** ≤ 100 mM

**Q.** And the “solubility of melatonin in DMSO” value ([2]; source tocris)?
**A.** ≤ 50 mM

**Q.** What about the melatonin breakdown ([3]; 20% (w/w) glycofurol, 40% (w/w) DMSO in water, 45 days at 25° C.) of the same molecule?
**A.** no evidence of the melatonin breakdown

**Q.** What about the melatonin breakdown ([3]; 50% (w/w) DMSO, 45 days at 25° C.) of the same molecule?
**A.** no evidence of the melatonin breakdown

**Q.** What about the “degradation peaks (8.1, 8.4 and 8.6 min) together, share of the recovered UV-absorbent material” value ([3]; 45 days, 10 mg/mL) of the same molecule?
**A.** 0.36%

**Q.** What about the “melatonin peak at 6.0 min” value ([3]; melatonin 10 mg/mL in 20% (w/w) aqueous glycofurol, 45 days at 5° C.) of the same molecule?
**A.** 5871 absorption units

**Q.** What about the “additional peak at 8.4 min not seen in the 5° C. sample” value [3, 5] of the same molecule?
**A.** 8.314 absorption units

**Q.** What about the “additional peak at 8.6 min not seen in the 5° C. sample” value [3, 5] of the same molecule?
**A.** 5 absorption units

**Q.** And the “additional peak at […] not seen in the 5° C. sample” value [3, 5]?
**A.** 7.973 absorption units

**Q.** And the “melatonin peak at 6.0 min” value [3, 5]?
**A.** 5831 absorption units

**Q.** And the “melatonin peak at 6.0 min” value ([3]; melatonin 10 mg/mL in 20% (w/w) glycofurol, 40% (w/w) DMSO in water, 45 days at 5° C.)?
**A.** 6831 absorption units

**Q.** And the “additional peaks of UV-absorbent material” value [3, 6]?
**A.** no additional peaks

**Q.** And the “melatonin peak at 6.0 min” value [3, 6]?
**A.** 6851 absorption units

**Q.** What about the “melatonin peak at 6.0 min” value ([3]; melatonin 10 mg/mL in 50% (w/w) aqueous DMSO, 45 days at 5° C.) of the same molecule?
**A.** 8771 absorption units

**Q.** And the additional peaks ([3]; melatonin 10 mg/mL in 50% (w/w) aqueous DMSO, 45 days at 5° C. or 25° C.)?
**A.** No additional peaks

**Q.** And the “melatonin peak at 6.0 min” value ([3]; melatonin 10 mg/mL in 50% (w/w) aqueous DMSO, 45 days at 25° C.)?
**A.** 8771 absorption units

**Q.** And the “decline in the melatonin concentrations” value ([3]; solutions 1), 2) and 3), sealed tubes, 25° C., HPLC on days 0, 10, 17, 31 and 45)?
**A.** no significant decline

**Q.** And the solubility [4]?
**A.** > 10 mg/mL

**Q.** Which LD50 (rat) does the source give for `C[S+](C)[O-]` [DMSO, dimethyl sulfoxide] here?
**A.** 14500 mg/kg

— patent US20260041774A1 (RepoCeuticals A/S, priority 2017, published 2026)
